Results: article PMC9906756 (2023)

Key:
Assay in all cases: luminescence titration
[1] = test system: TBA (DNA, G4) GGTTGGTGTGGTTGG; conditions: 100 mM KCl, 10 mM potassium phosphate; pH 7; 10 μM Ru-PDC3; per G4 strand; site size 0.5
[2] = test system: A13 (DNA, single strand) AAAAAAAAAAAAA; conditions: 100 mM KCl, 10 mM potassium phosphate, pH 7, 10 μM Ru-PDC3, per base, site size 0.5, Table S2 prints 2.3±1.2 × 10^6
INTER (DNA, G4) TAGGGTTA = conditions: 100 mM KCl, 10 mM potassium phosphate; pH 7; 10 μM Ru-PDC3; concentration as G4 strand equivalent; site size 0.5
[3] = test system: T13 (DNA, single strand) TTTTTTTTTTTTT; conditions: 100 mM KCl, 10 mM potassium phosphate, pH 7, 10 μM Ru-PDC3, per base, site size 1, Table S2 prints error 0.6
[4] = test system: 22AG (DNA, G4) AGGGTTAGGGTTAGGGTTAGGG; conditions: 100 mM KCl, 10 mM potassium phosphate; pH 7; 10 μM Ru-PDC3; per G4 strand; site size 0.5
[5] = test system: K-ras (DNA, G4) AGGGCGGTGTGGGATAGGGAA; conditions: 100 mM KCl, 10 mM potassium phosphate; pH 7; 10 μM Ru-PDC3; per G4 strand; site size 0.5
[6] = test system: ss17 (DNA, single strand) CCAGTTCGTAGTAACCC; conditions: 100 mM KCl, 10 mM potassium phosphate, pH 7, 10 μM Ru-PDC3, per base, site size 1
[7] = test system: ds17 (DNA, duplex) CCAGTTCGTAGTAACCC/GGGTTACTACGAACTGG; conditions: 100 mM KCl, 10 mM potassium phosphate, pH 7, 10 μM Ru-PDC3, per base pair, site size 1
[8] = test system: Pu24T (DNA, G4) TGAGGGTGGTGAGGGTGGGGAAGG; conditions: 100 mM KCl, 10 mM potassium phosphate; pH 7; 10 μM Ru-PDC3; per G4 strand; site size 0.5

- Kb [1]: 5.6 ± 1.7 × 10^6 M^-1
- Kb [2]: 2.2 ± 1.3 × 10^6 M^-1
- Kb (INTER (DNA, G4) TAGGGTTA): 1.4 ± 0.2 × 10^7 M^-1
- Kb [3]: 1.4 ± 0.5 × 10^6 M^-1
- Kb [4]: 2.2 ± 0.7 × 10^7 M^-1
- Kb [5]: 1.4 ± 0.1 × 10^7 M^-1
- Kb [6]: 1.3 ± 0.4 × 10^6 M^-1
- Kb [7]: 1.9 ± 0.3 × 10^6 M^-1
- Kb [8]: 2.6 ± 0.1 × 10^6 M^-1
Structure (SMILES): C[n+]1cc(NC(=O)c2ccc3c(n2)c2nc(C(=O)Nc4cc5ccccc5[n+](C)c4)ccc2c2nc4c5cccnc5c5ncccc5c4nc32)cc2ccccc21.[Ru+2].c1cnc2c(c1)ccc1cccnc12.c1cnc2c(c1)ccc1cccnc12
